Values quoted from earlier work, collected in patent US12336975B2, “Composition and methods for treatment or prophylaxis of coronavirus and cancers” ([…], priority 2020, dated 2025).

Test system: COVID-19
Conditions: preventive and treatment approach for COVID-19

SMILES: CCN(CCO)CCCC(C)Nc1ccnc2cc(Cl)ccc12 (centres unmarked) [hydroxychloroquine]
- efficacy against COVID-19: no effective results
- reported side effect rate: 40.1%
